The results in this text go back to patent publication US6777229B1, “Plasmids from Corynebacterium glutamicum and use thereof” (Degussa AG, priority 1999, dated 2004).

Holding throughout (assay): Minimum inhibition concentration, NCCLS Approved Standard M7-A4 dilution test
What all share (assay type): cell-based

The test system of test [1] is Corynebacterium glutamicum ATCC13032. The note with it: strain ATCC13032 (sensitive control), MÜLLER-HINTON bouillon. The text has this: (§1) In order to identify antibiotic resistance genes on new plasmids, the strain to be investigated, in the present case Corynebacterium glutamicum LP-6, and a sensitive control strain, in the present case Corynebacterium glutamicum ATCC13032, are initially tested for resistance or sensitivity to various antibiotics and concentrations of antibiotics. […] Using the method of “Approved Standard M7-A4”, it is possible to determine inhibition concentrations and thus to ascertain the resistance of the investigated strain of bacteria.
(§2) In order to identify antibiotic resistance regions on the novel plasmids pTET3 or pCRY4, the resistant test strain Corynebacterium glutamicum LP-6 and the sensitive control strain Corynebacterium glutamicum ATCC13032 were initially cultured in the presence and absence of various antibiotics and antibiotic concentrations in accordance with the experimental method of the National Committee of Clinical Laboratory Standards (National Committee of Clinical Laboratory Standards, Methods for dilution antimicrobial susceptibility tests for bacteria that grow aerobically; Approved Standard, M7-A4 (1997)). The antibiotics required for this test, inter alia the antibiotics tetracycline, spectinomycin, streptomycin and sulfamethoxazole, were obtained from Sigma-Aldrich Chemie GmbH (Deisenhofen, Germany) and used in the concentrations stated in “Approved Standard M7-A4”. The nutrient medium required for this test, “MÖLLER-HINTON bouillon” was obtained from Merck KGaA (Darmstadt, Germany) and used in accordance with the manufacturer's instructions. Using the method of “Approved Standard M7-A4”, it is possible to determine inhibition concentrations (Table 1) and to identify the resistance of the bacterial strain Corynebacterium glutamicum LP-6 to the antibiotics tetracycline, spectinomycin, streptomycin and sulfamethoxazole. Plasmid DNA isolated from Corynebacterium glutamicum LP-6 using an alkaline lysis method (“NucleoBond Nucleic Acid Purification Kits and Cartridges User Manual (PT3167-1)”, Clonetech Laboratories GmbH, Heidelberg, Germany, 1997) was then transferred with electrical assistance into Corynebacterium glutamicum ATCC13032. Selection was performed directly for the presence of the identified tetracycline resistance in the primary selection on LB agar containing 5 μg/ml of tetracycline. […] The transformed strain was named Corynebacterium glutamicum ATCC13032 [pTET3].

In test [2] the test system is Corynebacterium glutamicum LP-6. The note with it: strain LP-6 (resistant test strain).
Source text: as §1, §2

The subject of test [3] is Corynebacterium glutamicum ATCC13032 [pTET3]. The settings on record: strain ATCC13032 [pTET3]. From the text: In order to identify antibiotic resistance genes on new plasmids, the strain to be investigated, in the present case Corynebacterium glutamicum LP-6, and a sensitive control strain, in the present case Corynebacterium glutamicum ATCC13032, are initially tested for resistance or sensitivity to various antibiotics and concentrations of antibiotics. The National Committee of Clinical Laboratory Standards (NCCLS) experimental procedure is preferably used for this purpose (“Methods for dilution antimicrobial susceptibility tests for bacteria that grow aerobically”, fourth edition; Approved Standard, M7-A4, NCCLS 17(2), (1997)). Using the method of “Approved Standard M7-A4”, it is possible to determine inhibition concentrations and thus to ascertain the resistance of the investigated strain of bacteria.
The plasmid to be investigated, in the present case pTET3, is then isolated from strain LP-6 as described above and used to transform a suitable control or indicator strain, in the present case strain ATCC13032. Methods for transforming coryneform bacteria are described, for example, in Thierbach et al. ([…] 29, 356-362 (1988)), in Liebl et al. (FEMS Microbiology Letters 65, 299-304 (1989)) or in Dunican et al. (Bio/Technology 7, 1067-1070 (1989)). Selection is performed on conventional, complex nutrient media, such as for example brain-heart bouillon or Luria-Bertani medium, which are supplemented with the appropriate antibiotics. The antibiotic and the concentration thereof for this selection process is determined on the basis of the above-mentioned “Approved Standard, M7-A4”. In this manner, strain ATCC13032[pTET3], is obtained by selection for tetracycline resistance. The resistance/sensitivity of strain ATCC13032[pTET3) and of the control strain ATCC13032 is then investigated using the above-mentioned method, yielding the result that strain ATCC13032[pTET3] is resistant to the antibiotics tetracycline, streptomycin, spectinomycin and sulfamethoxazole.
In order to identify antibiotic resistance regions on the novel plasmids pTET3 or pCRY4, the resistant test strain Corynebacterium glutamicum LP-6 and the sensitive control strain Corynebacterium glutamicum ATCC13032 were initially cultured in the presence and absence of various antibiotics and antibiotic concentrations in accordance with the experimental method of the National Committee of Clinical Laboratory Standards (National Committee of Clinical Laboratory Standards, Methods for dilution antimicrobial susceptibility tests for bacteria that grow aerobically; Approved Standard, M7-A4 (1997)). […]

For the molecule `CN[C@@H]1[C@H](O)[C@H](NC)[C@H]2O[C@@]3(O)C(=O)C[C@@H](C)O[C@H]3O[C@@H]2[C@H]1O` [Spectinomycin], the Minimum inhibition concentration result in test [1] is “≦50 μg of antibiotic per ml”; in test [2], >2000 μg of antibiotic per ml; in test [3], >2000 μg of antibiotic per ml.

Consider `[H]/N=C(/N)N[C@H]1[C@H](O)[C@@H](O)[C@H](O[C@@H]2O[C@@H](C)[C@](O)(C=O)[C@H]2O[C@@H]2O[C@@H](CO)[C@H](O)[C@@H](O)[C@@H]2NC)[C@@H](N/C(N)=N\[H])[C@@H]1O` [Streptotmycin], for which the Minimum inhibition concentration result in test [1] is recorded as “≦0.5 μg of antibiotic per ml”; in test [2], “≦100 μg of antibiotic per ml”; in test [3], “≦100 μg of antibiotic per ml”.

Take `Cc1cc(NS(=O)(=O)c2ccc(N)cc2)no1` [Sulfamethoxazole]: the Minimum inhibition concentration entry is on record as “≦150 μg of antibiotic per ml” in test [1], “≦300 μg of antibiotic per ml” in test [2] and “≦300 μg of antibiotic per ml” in test [3].

For `CN(C)[C@@H]1C(O)=C(C(N)=O)C(=O)[C@@]2(O)C(O)=C3C(=O)c4c(O)cccc4[C@@](C)(O)[C@H]3C[C@@H]12` [Tetracycline], the Minimum inhibition concentration entry in test [1] was “≦0.75 μg of antibiotic per ml”; in test [2] it was “≦12 μg of antibiotic per ml”; in test [3], “≦12 μg of antibiotic per ml”.
